Experimental findings from patent publication US12559492B2, “BRAF degraders” (C4 Therapeutics, Inc., priority 2020, dated 2026) are described below.

The target in this assay is BRAF^V600E protein (Homo sapiens, UniProt P15056, V600E). Nature of the assay: HiBiT cellular BRAF V600E degradation assay. Format: cell-based. Particulars: 24 h incubation; for DC50: A375.10 cells (HiBiT tag knocked in at N-terminal of BRAF V600E), concentration at which 50% of total cellular BRAF V600E is degraded; for Emax / HiBit 24 h Emax: A375.10 cells, Emax = amount of residual protein remaining in the cell after compound treatment; for Emax: read-out: HiBit 24 h Emax. An excerpt: DMEM no-phenol red medium supplemented with L-glutamine was purchased from (Corning). Fetal bovine serum (FBS) was purchased from Gibco (Grand Island, NY, USA). Nano-Glo® HiBiT Lytic Assay Buffer & Reagents were purchased from Promega (Madison, WI, USA). […] Cell culture flasks and 384-well black flat-bottom polystyrene TC-treated microplates were acquired from Corning (Corning, NY, USA).
HiBiT Cellular BRAFv^600E Degradation Assay
Prior to the assay, the A375.10 cell line is maintained in DMEM no-phenol red medium supplemented with 10% fetal bovine serum (FBS). […] Briefly, test compounds were added to the 384-well plate from a top concentration of 10 μM with 11 half log dilutions of compound, plated in duplicate. Then, 30 uL of a suspension of A375.10 cell lines was dispensed into columns 1-24 of the 384-well plates at a cell density of 7500 cells per well. The plates were kept at 37° C. with 5% CO2 for the duration of the assay (6 or 24 hr). After the desired incubation time with compound, 30 uL of Nano-Glo® HiBiT Lytic Buffer containing LgBiT protein (diluted 1:100) and luminescence substrate (diluted 1:50) were added to the cells in columns 1-23 of the assay plate. The plate was the incubated for 30 min on the bench at room temperature. Finally, HiBiT luminescence signal was acquired on EnVision™ Multilabel Reader (PerkinElmer, Santa Clara, CA, USA).
Quantification of luminescence responses measured in the presence of compound were normalized to a high signal/no degradation control (untreated cells+lytic detection reagent) and a low signal/full degradation control (untreated cells, no lytic detection reagent). Data were analyzed with a 4-parameter logistic fit to generate sigmoidal dose-response curves. […] The Emax, or maximum effect of each compound, represents the amount of residual protein remaining in the cell following compound treatment.
A general note: The HiBiT peptide binds its large partner to form an active luciferase.

Chain of BRAF^V600E protein (P15056 whole entry V600E): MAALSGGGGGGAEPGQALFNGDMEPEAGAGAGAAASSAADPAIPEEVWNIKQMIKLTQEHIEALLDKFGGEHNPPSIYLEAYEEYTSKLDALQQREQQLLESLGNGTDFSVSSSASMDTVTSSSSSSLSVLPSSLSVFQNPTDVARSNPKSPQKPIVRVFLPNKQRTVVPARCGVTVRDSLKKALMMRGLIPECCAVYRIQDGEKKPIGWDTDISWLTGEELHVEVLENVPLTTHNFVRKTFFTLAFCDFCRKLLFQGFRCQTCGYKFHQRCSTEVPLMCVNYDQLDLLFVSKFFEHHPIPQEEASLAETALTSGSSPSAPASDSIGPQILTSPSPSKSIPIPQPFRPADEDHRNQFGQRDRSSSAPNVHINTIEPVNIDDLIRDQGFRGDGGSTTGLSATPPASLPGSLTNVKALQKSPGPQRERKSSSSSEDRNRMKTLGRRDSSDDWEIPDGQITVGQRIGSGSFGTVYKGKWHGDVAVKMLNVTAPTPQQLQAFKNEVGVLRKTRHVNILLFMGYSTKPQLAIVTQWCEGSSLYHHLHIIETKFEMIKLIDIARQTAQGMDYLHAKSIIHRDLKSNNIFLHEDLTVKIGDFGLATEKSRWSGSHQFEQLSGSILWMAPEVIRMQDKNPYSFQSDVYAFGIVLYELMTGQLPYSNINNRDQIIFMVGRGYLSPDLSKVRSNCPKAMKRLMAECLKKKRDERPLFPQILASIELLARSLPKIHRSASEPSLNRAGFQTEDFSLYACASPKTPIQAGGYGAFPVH

One may read the DC50 as the midpoint of the concentration-degradation curve. Read a high DC50 as a less potent degrader. As a reminder, the Emax is the greatest response seen or fitted, relative to the assay's reference. With `O=C1CCC(Nc2ccc(C3CCN(CCCC(=O)N4CC(c5ccc(-c6cnc7[nH]cc(C(=O)c8c(F)ccc(NS(=O)(=O)N9CCCC9)c8F)c7c6)cc5)C4)CC3)cc2)C(=O)N1` (stereo not drawn) [Example A89, N-[3-[5-[4-[1-[4-[4-[4-[(2,6-dioxopiperidin-3-yl)amino]phenyl]piperidin-1-yl]butanoyl]azetidin-3-yl]phenyl]-1H-pyrrolo[2,3-b]pyridine-3-carbonyl]-2,4-difluorophenyl]pyrrolidine-1-sulfonamide], it took 73 nM to reach half-maximal degradation (DC50) and the Emax was 12%.
For the molecule `CCN(C)S(=O)(=O)Nc1ccc(F)c(C(=O)c2c[nH]c3ncc(-c4cnc(N5CCN(C(=O)CN6CCC(c7ccc(NC8CCC(=O)NC8=O)cn7)CC6)CC5)nc4)cc23)c1F` (stereo not drawn) [Example A69, 5-[2-[4-[2-[4-[5-[(2,6-Dioxopiperidin-3-yl)amino]pyridin-2-yl]piperidin-1-yl]acetyl]piperazin-1-yl]pyrimidin-5-yl]-3-[3-[[ethyl(methyl)sulfamoyl]amino]-2,6-difluorobenzoyl]-1H-pyrrolo[2,3-b]pyridine], the 50% degradation concentration (DC50) worked out at 7 nM and the “HiBit 24 h Emax” value was 12%.
For the molecule `CCN(C)S(=O)(=O)Nc1ccc(F)c(C(=O)c2c[nH]c3ncc(-c4ccc(N5CCN(C(=O)CC6(O)CCN(c7ccc(C8CCC(=O)NC8=O)cc7F)CC6)CC5)cc4)cc23)c1F` (stereo not drawn) [Example 175, 5-[4-[4-[2-[1-[4-(2,6-dioxo-3-piperidyl)-2-fluoro-phenyl]-4-hydroxy-4-piperidyl]acetyl]piperazin-1-yl]phenyl]-3-[3-[[ethyl(methyl)sulfamoyl]amino]-2,6-difluoro-benzoyl]-1H-pyrrolo[2,3-b]pyridine], the 50% degradation concentration (DC50) was found to be 7.12 nM and the Emax worked out at 9.59%.
The corresponding values for `CCN(C)S(=O)(=O)Nc1ccc(F)c(C(=O)c2c[nH]c3ncc(-c4cnc(N5CC6(CC(N7CCC(c8ccc(NC9CCC(=O)NC9=O)cc8)CC7)C6)C5)nc4)cc23)c1F` (stereo not drawn) [Example 151, 5-[2-[6-[4-[4-[(2,6-dioxo-3-piperidyl)amino]phenyl]-1-piperidyl]-2-azaspiro[3.3]heptan-2-yl]pyrimidin-5-yl]-3-[3-[[ethyl(methyl)sulfamoyl]amino]-2,6-difluoro-benzoyl]-1H-pyrrolo[2,3-b]pyridine] are 1.85 nM and 6.38%.
`CCN(C)S(=O)(=O)Nc1cccc(C(=O)c2c[nH]c3ncc(-c4cnc(N5CCN(C(=O)CC6(O)CCN(c7ccc(NC8CCC(=O)NC8=O)cc7Cl)CC6)CC5)nc4)cc23)c1F` (stereo not drawn) [Example 103, 5-[2-[4-[2-[1-[2-chloro-4-[(2,6-dioxo-3-piperidyl)amino]phenyl]-4-hydroxy-4-piperidyl]acetyl]piperazin-1-yl]pyrimidin-5-yl]-3-[3-[[ethyl(methyl)sulfamoyl]amino]-2-fluoro-benzoyl]-1H-pyrrolo[2,3-b]pyridine]: the DC50 worked out at 3.04 nM and the Emax was 8.98%.
Regarding `CCN(C)S(=O)(=O)Nc1ccc(F)c(C(=O)c2c[nH]c3ncc(-c4ccc(N5CCN(C(=O)CC6(O)CCN(c7ccc(N8CCC(=O)NC8=O)cc7F)CC6)CC5)nc4)cc23)c1F` [Example 168, 5-[6-[4-[2-[1-[4-(2,4-dioxohexahydropyrimidin-1-yl)-2-fluoro-phenyl]-4-hydroxy-4-piperidyl]acetyl]piperazin-1-yl]-3-pyridyl]-3-[3-[[ethyl(methyl)sulfamoyl]amino]-2,6-difluoro-benzoyl]-1H-pyrrolo[2,3-b]pyridine], the DC50 is 3 nM and the maximal response (Emax) stood at 10.2%.
The corresponding values for `CCN(C)S(=O)(=O)Nc1ccc(F)c(C(=O)c2c[nH]c3ncc(-c4cnc(N5CCC(CC(=O)N6CCC(c7ccc(NC8CCC(=O)NC8=O)cc7)CC6)CC5)nc4)cc23)c1F` (stereo not drawn) [Example A112, 5-[2-[4-[2-[4-[4-[(2,6-Dioxopiperidin-3-yl)amino]phenyl]piperidin-1-yl]-2-oxoethyl]piperidin-1-yl]pyrimidin-5-yl]-3-[3-[[ethyl(methyl)sulfamoyl]amino]-2,6-difluorobenzoyl]-1H-pyrrolo[2,3-b]pyridine] are 15 nM and 15%.
The corresponding values for `CCN(C)S(=O)(=O)Nc1ccc(F)c(C(=O)c2c[nH]c3ncc(-c4ccc(N5CCN(C(=O)CC6(O)CCN(c7ccc(N8CCC(=O)NC8=O)cc7Cl)CC6)CC5)nc4)cc23)c1F` [Example 214, 5-[6-[4-[2-[1-[2-chloro-4-(2,4-dioxohexahydropyrimidin-1-yl)phenyl]-4-hydroxy-4-piperidyl]acetyl]piperazin-1-yl]-3-pyridyl]-3-[3-[[ethyl(methyl)sulfamoyl]amino]-2,6-difluoro-benzoyl]-1H-pyrrolo[2,3-b]pyridine] are 0.65 nM and 5.48%.
The corresponding values for `CCN(C)S(=O)(=O)Nc1ccc(F)c(C(=O)c2c[nH]c3ncc(-c4cnc(N5CCN(C(=O)CN6CCC(c7ccc(N[C@@H]8CCC(=O)NC8=O)cc7)CC6)CC5)nc4)cc23)c1F` [Example 26, 5-[2-[4-[2-[4-[4-[[(3R)-2,6-dioxo-3-piperidyl]amino]phenyl]-1-piperidyl]acetyl]piperazin-1-yl]pyrimidin-5-yl]-3-[3-[[ethyl(methyl)sulfamoyl]amino]-2,6-difluoro-benzoyl]-1H-pyrrolo[2,3-b]pyridine] are 4.55 nM and 7%.
With `CCN(C)S(=O)(=O)Nc1ccc(F)c(C(=O)c2c[nH]c3ncc(-c4cnc(N5CCN(C(=O)CN6CCC(c7ccc(N8CCC(=O)NC8=O)cc7)CC6)CC5)nc4)cc23)c1F` [Example 24, 5-[2-[4-[2-[4-[4-(2,4-dioxohexahydropyrimidin-1-yl)phenyl]-1-piperidyl]acetyl]piperazin-1-yl]pyrimidin-5-yl]-3-[3-[[ethyl(methyl)sulfamoyl]amino]-2,6-difluoro-benzoyl]-1H-pyrrolo[2,3-b]pyridine], the DC50 was found to be 5.59 nM and the “HiBit 24 h Emax” value was determined as 7.88%.
With `CC(C)S(=O)(=O)Nc1ccc(F)c(C(=O)c2c[nH]c3ncc(-c4ccc(N5CCN(C(=O)CN6CCC(c7ccc(OC8CCC(=O)NC8=O)cc7)CC6)CC5)nc4)cc23)c1F` (stereo not drawn) [Example 13, N-[3-[5-[6-[4-[2-[4-[4-[(2,6-dioxo-3-piperidyl)oxy]phenyl]-1-piperidyl]acetyl]piperazin-1-yl]-3-pyridyl]-1H-pyrrolo[2,3-b]pyridine-3-carbonyl]-2,4-difluoro-phenyl]propane-2-sulfonamide], the DC50 worked out at 20.9 nM and the Emax came to 9.56%.
The corresponding values for `O=C1CCC(Nc2ccc(C3CCN(CC(=O)N4CCN(c5ccc(-c6cnc7[nH]cc(C(=O)c8c(F)ccc(NS(=O)(=O)C9CCCC9)c8F)c7c6)cc5)CC4)CC3)cc2)C(=O)N1` (stereo not drawn) [Example A52, N-[3-[5-[4-[4-[2-[4-[4-[(2,6-Dioxopiperidin-3-yl)amino]phenyl]piperidin-1-yl]acetyl]piperazin-1-yl]phenyl]-1H-pyrrolo[2,3-b]pyridine-3-carbonyl]-2,4-difluorophenyl]cyclopentanesulfonamide] are 10 nM and 12%.
Take `CCN(C)S(=O)(=O)Nc1ccc(F)c(C(=O)c2c[nH]c3ncc(-c4cnc(N5CCC(NC(=O)CN6CCC(c7ccc(OC8CCC(=O)NC8=O)cc7)CC6)CC5)nc4)cc23)c1F` (stereo not drawn) [Example A59, 2-[4-[4-(2,6-Dioxopiperidin-3-yl)oxyphenyl]piperidin-1-yl]-N-[1-[5-[3-[3-[[ethyl(methyl)sulfamoyl]amino]-2,6-difluorobenzoyl]-1H-pyrrolo[2,3-b]pyridin-5-yl]pyrimidin-2-yl]piperidin-4-yl]acetamide;formic acid]: the DC50 is 60 nM and the maximal response (Emax) came out at 13%.
The corresponding values for `CCN(C)S(=O)(=O)Nc1ccc(F)c(C(=O)c2c[nH]c3ncc(-c4cnc(N5CCN(C(=O)CC6CCC(c7ccc(NC8CCC(=O)NC8=O)cc7)CC6)CC5)nc4)cc23)c1F` (single isomer, unassigned) [Example 35, 5-[2-[4-[2-[4-[4-[(2,6-dioxo-3-piperidyl)amino]phenyl]cyclohexyl]acetyl]piperazin-1-yl]pyrimidin-5-yl]-3-[3-[[ethyl(methyl)sulfamoyl]amino]-2,6-difluoro-benzoyl]-1H-pyrrolo[2,3-b]pyridine] are 25 nM and 23.1%.
The corresponding values for `CCN(C)S(=O)(=O)Nc1cccc(C(=O)c2c[nH]c3ncc(-c4cnc(N5CCN(C(=O)CN6CCC(c7ccc(NC8CCC(=O)NC8=O)cc7)CC6)CC5)nc4)cc23)c1F` (stereo not drawn) [Example 96, 5-[2-[4-[2-[4-[4-[(2,6-dioxo-3-piperidyl)amino]phenyl]-1-piperidyl]acetyl]piperazin-1-yl]pyrimidin-5-yl]-3-[3-[[ethyl(methyl)sulfamoyl]amino]-2-fluoro-benzoyl]-1H-pyrrolo[2,3-b]pyridine] are 9.43 nM and 8.26%.
